In brackets after ≈: the same amount, converted by molar mass. Activity calls are given as the source filed them. No cut-off for these calls is given here.
Tests used:
[1] = target: Protease (Human immunodeficiency virus 1) (UniProt Q9YQ12); assay: Inhibition of HIV1 protease at 5 uM using Abz-Tyr-Ile-Nle-Nph-Gln-Arg as substrate preincubated for 10 mins followed by substrate addition and measured by FRET assay
[2] = target: T1, Renin (Homo sapiens) (UniProt P00797); assay: Inhibition of recombinant human N-terminal FLAG-tagged renin (67 to 406 residues) expressed in HEK cells at 50 nM using Arg-Glu(EDANS)-Ile-His-Pro-Phe-His-Leu-Val-Ile-His-Thr-Lys(Dabcyl)-Arg as substrate preincubated for 10 mins followed by substrate addition and measured by FRET assay
T1 sequence (whole entry): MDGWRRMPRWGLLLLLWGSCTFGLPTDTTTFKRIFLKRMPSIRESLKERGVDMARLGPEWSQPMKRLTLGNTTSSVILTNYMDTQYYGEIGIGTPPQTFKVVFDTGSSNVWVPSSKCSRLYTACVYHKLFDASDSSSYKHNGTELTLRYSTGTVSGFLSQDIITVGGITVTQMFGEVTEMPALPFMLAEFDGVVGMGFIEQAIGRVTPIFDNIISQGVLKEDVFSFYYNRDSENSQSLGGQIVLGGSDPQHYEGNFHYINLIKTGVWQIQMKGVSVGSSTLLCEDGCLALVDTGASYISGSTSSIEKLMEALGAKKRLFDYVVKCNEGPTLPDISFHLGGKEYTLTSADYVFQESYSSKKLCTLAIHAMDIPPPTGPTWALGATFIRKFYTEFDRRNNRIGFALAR

[3] = target: Cathepsin D (Homo sapiens, UniProt P07339); assay: Inhibition of human placenta CatD using Abz-Lys-Pro-Ala-Glu-Phe-Nph-Ala-Leu as substrate preincubated for 10 mins followed by substrate addition and measured by FRET assay
Sequence of Cathepsin D (P07339 65-162 limits assumed): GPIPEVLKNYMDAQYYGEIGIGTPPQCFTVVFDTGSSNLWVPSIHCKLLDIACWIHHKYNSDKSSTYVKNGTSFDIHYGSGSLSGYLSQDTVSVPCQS
Sequence of Cathepsin D (P07339 169-412 limits assumed): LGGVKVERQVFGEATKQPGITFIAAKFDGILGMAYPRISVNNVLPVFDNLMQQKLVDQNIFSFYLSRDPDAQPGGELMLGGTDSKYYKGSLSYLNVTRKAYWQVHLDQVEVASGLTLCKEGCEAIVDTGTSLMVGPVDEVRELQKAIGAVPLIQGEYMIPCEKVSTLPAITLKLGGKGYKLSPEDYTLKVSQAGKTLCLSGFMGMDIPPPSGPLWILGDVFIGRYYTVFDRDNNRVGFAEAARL

[4] = target: T2, Thermolysin (Geobacillus stearothermophilus, UniProt P43133); assay: Stability of the compound assessed as Geobacillus stearothermophilus thermolysin-mediated compound hydrolysis at 25 ug measured after 18 hrs by HPLC analysis; assay type: ADME
T2 sequence (P43133 whole entry): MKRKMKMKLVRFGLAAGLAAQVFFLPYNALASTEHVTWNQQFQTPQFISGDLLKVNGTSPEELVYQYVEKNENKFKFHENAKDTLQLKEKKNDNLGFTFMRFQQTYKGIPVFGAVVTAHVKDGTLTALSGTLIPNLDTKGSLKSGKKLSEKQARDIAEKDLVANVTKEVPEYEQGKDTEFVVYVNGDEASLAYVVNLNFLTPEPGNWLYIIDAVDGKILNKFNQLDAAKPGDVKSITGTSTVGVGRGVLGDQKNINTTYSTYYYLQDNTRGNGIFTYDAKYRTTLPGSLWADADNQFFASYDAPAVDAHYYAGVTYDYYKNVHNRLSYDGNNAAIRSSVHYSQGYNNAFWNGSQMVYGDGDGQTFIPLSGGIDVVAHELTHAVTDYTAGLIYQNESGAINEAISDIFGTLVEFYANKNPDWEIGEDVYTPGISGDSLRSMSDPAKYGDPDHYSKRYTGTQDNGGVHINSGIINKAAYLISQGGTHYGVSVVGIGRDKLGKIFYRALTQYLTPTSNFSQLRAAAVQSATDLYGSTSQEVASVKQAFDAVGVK

[5] = target: T3, Papain (Carica papaya, UniProt P00784); assay: Stability of the compound assessed as papaya papain-mediated compound hydrolysis at 25 ug measured after 18 hrs by HPLC analysis; assay type: ADME
T3 sequence (P00784 whole entry): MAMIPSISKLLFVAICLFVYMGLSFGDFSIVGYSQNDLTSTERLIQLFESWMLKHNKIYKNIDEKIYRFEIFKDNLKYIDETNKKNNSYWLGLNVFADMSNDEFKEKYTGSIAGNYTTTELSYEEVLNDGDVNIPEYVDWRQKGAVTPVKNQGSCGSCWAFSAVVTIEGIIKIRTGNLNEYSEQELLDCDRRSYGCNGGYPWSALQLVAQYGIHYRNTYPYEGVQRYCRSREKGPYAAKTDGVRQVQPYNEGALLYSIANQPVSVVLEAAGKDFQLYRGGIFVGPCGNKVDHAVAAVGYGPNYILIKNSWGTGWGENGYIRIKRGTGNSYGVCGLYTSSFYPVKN

[6] = Apparent permeability in human Caco2 cells at 5 uM measured after 5 hrs by LC-MS analysis; assay type: ADME, cell-based; details: Caco-2
[7] = target: Beta-secretase 1 (Homo sapiens) (UniProt P56817); assay: Inhibition of recombinant human C-terminal 10His-tagged BACE1 expressed in mouse NS0 cells at 5 uM using Mca-Ser-Glu-Val-Asn-Leu-Asp-Ala-Glu-Phe-Arg-Lys(Dnp)-Arg-Arg as substrate preincubated for 10 mins followed by substrate addition and measured by FRET assay
Sequence of Beta-secretase 1 (Homo sapiens) (P56817 whole entry): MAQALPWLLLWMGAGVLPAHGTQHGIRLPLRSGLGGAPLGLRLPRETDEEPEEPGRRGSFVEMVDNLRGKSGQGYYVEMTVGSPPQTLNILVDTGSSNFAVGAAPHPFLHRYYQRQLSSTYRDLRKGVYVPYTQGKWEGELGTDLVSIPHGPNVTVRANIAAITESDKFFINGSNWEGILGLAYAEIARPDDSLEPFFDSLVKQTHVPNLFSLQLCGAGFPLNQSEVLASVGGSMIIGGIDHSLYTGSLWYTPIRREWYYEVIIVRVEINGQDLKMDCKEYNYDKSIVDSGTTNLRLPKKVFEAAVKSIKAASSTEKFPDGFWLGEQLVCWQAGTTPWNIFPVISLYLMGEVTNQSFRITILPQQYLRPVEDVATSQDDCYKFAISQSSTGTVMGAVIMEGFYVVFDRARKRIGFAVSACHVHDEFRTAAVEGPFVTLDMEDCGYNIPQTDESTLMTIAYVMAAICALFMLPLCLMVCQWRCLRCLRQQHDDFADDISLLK

[8] = species on record: Bos taurus; assay: Inhibition of bovine chymotrypsin at 1 uM using Z-Phe-Arg-AMC as substrate preincubated for 10 mins followed by substrate addition and measured after 20 mins by fluorescence assay
[9] = target: T4, Thermolysin (Geobacillus stearothermophilus) (UniProt P43133); assay: Inhibition of Geobacillus stearothermophilus thermolysin at 1 uM using Abz-Ala-Gly-Leu-Ala-nitro-benzylamide as substrate preincubated for 10 mins followed by substrate addition and measured after 20 mins by fluorescence assay
T4 sequence (whole entry): T2 sequence (P43133 whole entry)

[10] = target: T1, Renin (Homo sapiens); assay: Inhibition of recombinant human N-terminal FLAG-tagged renin (67 to 406 residues) expressed in HEK cells at 5 uM using Arg-Glu(EDANS)-Ile-His-Pro-Phe-His-Leu-Val-Ile-His-Thr-Lys(Dabcyl)-Arg as substrate preincubated for 10 mins followed by substrate addition and measured by FRET assay
[11] = system: NHDF; assay: Cytotoxicity against NHDF cells assessed as reduction in cell viability up to 100 uM measured after 72 hrs by Celltiter-glo assay; assay type: cell-based; details: human
[12] = Stability of the compound assessed as bovine chymotrypsin-mediated compound hydrolysis at 25 ug measured after 18 hrs by HPLC analysis; assay type: ADME, Bos taurus; details: cattle
[13] = target: Saccharopepsin (Saccharomyces cerevisiae S288c) (UniProt P07267); assay: Inhibition of Baker's yeast proteinase A at 50 nM using Abz-Lys-Pro-Ala-Glu-Phe-Nph-Ala-Leu as substrate preincubated for 10 mins followed by substrate addition and measured by FRET assay
Sequence of Saccharopepsin (Saccharomyces cerevisiae S288c) (P07267 whole entry): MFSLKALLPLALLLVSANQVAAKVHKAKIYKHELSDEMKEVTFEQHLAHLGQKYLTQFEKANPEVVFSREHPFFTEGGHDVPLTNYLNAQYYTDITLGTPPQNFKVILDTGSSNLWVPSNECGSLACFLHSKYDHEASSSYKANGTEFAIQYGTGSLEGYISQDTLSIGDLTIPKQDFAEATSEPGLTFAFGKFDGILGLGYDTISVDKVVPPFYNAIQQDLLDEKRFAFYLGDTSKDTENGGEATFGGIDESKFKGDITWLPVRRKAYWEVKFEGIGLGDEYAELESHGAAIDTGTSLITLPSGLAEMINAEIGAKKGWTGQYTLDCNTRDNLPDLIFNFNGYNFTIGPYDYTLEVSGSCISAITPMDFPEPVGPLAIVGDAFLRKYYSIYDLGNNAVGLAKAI

[14] = target: Protease (Human immunodeficiency virus 1) (UniProt Q9YQ12); assay: Inhibition of HIV1 protease at 50 nM using Abz-Tyr-Ile-Nle-Nph-Gln-Arg as substrate preincubated for 10 mins followed by substrate addition and measured by FRET assay
[15] = target: T5, Papain (Carica papaya) (UniProt P00784); assay: Inhibition of papaya papain at 1 uM using Z-Phe-Arg-AMC as substrate preincubated for 10 mins followed by substrate addition and measured after 20 mins by fluorescence assay
T5 sequence (whole entry): T3 sequence (P00784 whole entry)

[16] = target: Beta-secretase 1 (Homo sapiens) (UniProt P56817); assay: Inhibition of recombinant human C-terminal 10His-tagged BACE1 expressed in mouse NS0 cells at 50 nM using Mca-Ser-Glu-Val-Asn-Leu-Asp-Ala-Glu-Phe-Arg-Lys(Dnp)-Arg-Arg as substrate preincubated for 10 mins followed by substrate addition and measured by FRET assay
[17] = system: PBMC; assay: Cytotoxicity against human PBMC cells assessed as reduction in cell viability up to 100 uM measured after 72 hrs by Celltiter-glo assay; assay type: cell-based
[18] = system: Ixodes ricinus; assay: Inhibition of Ixodes ricinus CatD expressed in Escherichia coli BL21(DE3) at 50 nM using Abz-Lys-Pro-Ala-Glu-Phe-Nph-Ala-Leu as substrate preincubated for 10 mins followed by substrate addition and measured by FRET assay
[19] = Stability of the compound assessed as bovine trypsin-mediated compound hydrolysis at 25 ug measured after 18 hrs by HPLC analysis; assay type: ADME, Bos taurus; details: cattle
[20] = species on record: Bos taurus; assay: Inhibition of bovine trypsin at 1 uM using Z-Phe-Arg-AMC as substrate preincubated for 10 mins followed by substrate addition and measured after 20 mins by fluorescence assay
[21] = Solubility of the compound in pH 7.4 phosphate buffered saline by HPLC-MS analysis; assay type: physicochemical

Sequence of Protease (Human immunodeficiency virus 1) (Q9YQ12 as listed by the source): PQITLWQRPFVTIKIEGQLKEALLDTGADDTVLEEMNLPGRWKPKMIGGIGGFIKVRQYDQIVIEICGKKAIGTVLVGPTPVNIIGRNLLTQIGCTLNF

inhibition [1]	inhibition [2]	IC50 [3] [nM]	Stability [4]	Stability [5]	inhibition [7]	inhibition [8]	inhibition [9]	inhibition [10]	Stability [12]	inhibition [13]	inhibition [14]	inhibition [15]	inhibition [16]	inhibition [18]	Stability [19]	inhibition [20]	Structure (SMILES)	Activity [11]	Activity [17]	other results
Active	inactive	2.5	Stable	Stable	Active	inactive	inactive	Active	Stable	Active	inactive	inactive	inactive	Active	Stable	inactive	CC(C)[C@@H]1NC(=O)C[C@H](O)[C@H](Cc2ccccc2)NC(=O)OCCCCCCCCCCCNC1=O	Non-Toxic	Non-Toxic	Papp at 5 h, 5 µM [6]: 1.68 ×10⁻⁶ cm/s
Active	inactive	1.1	Stable	Stable	Active	inactive	inactive	Active	Stable	Active	inactive	inactive	inactive	Active	Stable	inactive	O=C1C[C@H](O)[C@H](Cc2ccccc2)NC(=O)CCCCCCCCCCCNC(=O)[C@H](Cc2cccnc2)N1	Non-Toxic	Non-Toxic	solubility [21]: 342 µg/mL (≈ 637 µM)

Reference: ChEMBL document CHEMBL4321885, “Biomimetic Macrocyclic Inhibitors of Human Cathepsin D: Structure-Activity Relationship and Binding Mode Analysis” (J Med Chem, 2020)
